#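 Compound exposure: 48 hours, 5 concentrations, 96-well plates. GI50: concentration for 50% inhibition of growth.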 The source made the active and inactive calls. Cut-off read from the data, not from the text of the source: active = GI50 up to about 1.1 µM and inactive = higher.
# What was measured:
# Assay in all cases: NCI-60 cell line screen, 48 h
# 786-0 = test system: 786-0
# A498 = test system: A498
# A549 = test system: A549
# ACHN = test system: ACHN
# CAKI-1 = test system: CAKI-1
# CCRF-CEM = test system: CCRF-CEM
# COLO 205 = test system: COLO 205
# DLD-1 = test system: DLD-1
# DMS-114 = test system: DMS-114
# DMS-273 = test system: DMS-273
# EKVX = test system: EKVX
# HCC 2998 = test system: HCC 2998
# HCT-116 = test system: HCT-116
# HCT-15 = test system: HCT-15
# HL-60 = test system: HL-60
# HOP-18 = test system: HOP-18
# HOP-62 = test system: HOP-62
# HOP-92 = test system: HOP-92
# HT-29 = test system: HT-29
# IGROV-1 = test system: IGROV-1
# K562 = test system: K562
# KM-20L2 = test system: KM-20L2
# KM12 = test system: KM12
# LOX IMVI = test system: LOX IMVI
# LXFL 529 = test system: LXFL 529
# M14 = test system: M14
# M19-MEL = test system: M19-MEL
# MOLT-4 = test system: MOLT-4
# Malme-3M = test system: Malme-3M
# NCI-H226 = test system: NCI-H226
# NCI-H23 = test system: NCI-H23
# NCI-H460 = test system: NCI-H460
# NCI-H522 = test system: NCI-H522
# OVCAR-3 = test system: OVCAR-3
# OVCAR-4 = test system: OVCAR-4
# OVCAR-5 = test system: OVCAR-5
# OVCAR-8 = test system: OVCAR-8
# RPMI-8226 = test system: RPMI-8226
# RXF 393 = test system: RXF 393
# SF-268 = test system: SF-268
# SF-295 = test system: SF-295
# SF-539 = test system: SF-539
# SK-MEL-28 = test system: SK-MEL-28
# SK-MEL-2 = test system: SK-MEL-2
# SK-MEL-5 = test system: SK-MEL-5
# SK-OV-3 = test system: SK-OV-3
# SN12C = test system: SN12C
# SNB-19 = test system: SNB-19
# SNB-75 = test system: SNB-75
# SNB-78 = test system: SNB-78
# SR = test system: SR
# SW-620 = test system: SW-620
# TK-10 = test system: TK-10
# U-251 = test system: U-251
# UACC-257 = test system: UACC-257
# UACC-62 = test system: UACC-62
# UO-31 = test system: UO-31
# XF498 = test system: XF498
# RXF 631 = test system: RXF 631
smiles,measurement,setting,value
O=c1c([Se]c2coc3ccccc3c2=O)coc2ccccc12,GI50,786-0,18.5 µM (inactive)
same,GI50,A498,19.1 µM (inactive)
same,GI50,A549,6.3 µM (inactive)
same,GI50,ACHN,18.2 µM (inactive)
same,GI50,CAKI-1,20 µM (inactive)
same,GI50,CCRF-CEM,18.1 µM (inactive)
same,GI50,COLO 205,16.2 µM (inactive)
same,GI50,DLD-1,18.2 µM (inactive)
same,GI50,DMS-114,17.5 µM (inactive)
same,GI50,DMS-273,11 µM (inactive)
same,GI50,EKVX,18.7 µM (inactive)
same,GI50,HCC 2998,17.7 µM (inactive)
same,GI50,HCT-116,3.8 µM (inactive)
same,GI50,HCT-15,16.9 µM
same,GI50,HL-60,23 µM (inactive)
same,GI50,HOP-18,15.7 µM (inactive)
same,GI50,HOP-62,4.89 µM (inactive)
same,GI50,HOP-92,17.6 µM (inactive)
same,GI50,HT-29,17.1 µM (inactive)
same,GI50,IGROV-1,10.5 µM (inactive)
same,GI50,K562,34.1 µM (inactive)
same,GI50,KM-20L2,12 µM (inactive)
same,GI50,KM12,11.3 µM (inactive)
same,GI50,LOX IMVI,16 µM (inactive)
same,GI50,LXFL 529,15.4 µM (inactive)
same,GI50,M14,14.9 µM (inactive)
same,GI50,M19-MEL,15.3 µM (inactive)
same,GI50,MOLT-4,9.18 µM (inactive)
same,GI50,Malme-3M,17.8 µM (inactive)
same,GI50,NCI-H226,14.1 µM (inactive)
same,GI50,NCI-H23,15.6 µM (inactive)
same,GI50,NCI-H460,3.65 µM (inactive)
same,GI50,NCI-H522,18.4 µM (inactive)
same,GI50,OVCAR-3,18 µM (inactive)
same,GI50,OVCAR-4,16.9 µM (inactive)
same,GI50,OVCAR-5,16.2 µM (inactive)
same,GI50,OVCAR-8,12.7 µM (inactive)
same,GI50,RPMI-8226,22.8 µM (inactive)
same,GI50,RXF 393,15.9 µM (inactive)
same,GI50,SF-268,19.5 µM (inactive)
same,GI50,SF-295,2.76 µM (inactive)
same,GI50,SF-539,11.9 µM (inactive)
same,GI50,SK-MEL-28,17.1 µM (inactive)
same,GI50,SK-MEL-2,18.2 µM (inactive)
same,GI50,SK-MEL-5,16.3 µM (inactive)
same,GI50,SK-OV-3,16.2 µM (inactive)
same,GI50,SN12C,15 µM (inactive)
same,GI50,SNB-19,14 µM (inactive)
same,GI50,SNB-75,15.6 µM (inactive)
same,GI50,SNB-78,19.9 µM (inactive)
same,GI50,SR,4.72 µM (inactive)
same,GI50,SW-620,19 µM (inactive)
same,GI50,TK-10,17.7 µM (inactive)
same,GI50,U-251,7.13 µM (inactive)
same,GI50,UACC-257,17.4 µM (inactive)
same,GI50,UACC-62,17.1 µM (inactive)
same,GI50,UO-31,13.5 µM (inactive)
same,GI50,XF498,16.8 µM (inactive)
NC(=O)c1cn(C2OC(CO)C(O)C2O)c(=O)[nH]c1=O (configuration not stated),GI50,786-0,> 100 µM (inactive)
same,GI50,A498,> 100 µM (inactive)
same,GI50,A549,> 100 µM (inactive)
same,GI50,ACHN,> 100 µM (inactive)
same,GI50,CAKI-1,> 100 µM (inactive)
same,GI50,CCRF-CEM,> 100 µM (inactive)
same,GI50,COLO 205,> 100 µM (inactive)
same,GI50,DLD-1,> 100 µM (inactive)
same,GI50,DMS-114,> 100 µM (inactive)
same,GI50,DMS-273,> 100 µM (inactive)
same,GI50,EKVX,> 100 µM (inactive)
same,GI50,HCT-116,> 100 µM (inactive)
same,GI50,HCT-15,> 100 µM
same,GI50,HL-60,> 100 µM (inactive)
same,GI50,HOP-62,> 100 µM (inactive)
same,GI50,HOP-92,> 100 µM (inactive)
same,GI50,HT-29,> 100 µM (inactive)
same,GI50,IGROV-1,> 100 µM (inactive)
same,GI50,K562,> 100 µM (inactive)
same,GI50,KM12,> 100 µM (inactive)
same,GI50,LOX IMVI,> 100 µM (inactive)
same,GI50,LXFL 529,> 100 µM (inactive)
same,GI50,M14,> 100 µM (inactive)
same,GI50,M19-MEL,> 100 µM (inactive)
same,GI50,MOLT-4,> 100 µM (inactive)
same,GI50,NCI-H226,> 100 µM (inactive)
same,GI50,NCI-H23,> 100 µM (inactive)
same,GI50,NCI-H460,> 100 µM (inactive)
same,GI50,NCI-H522,> 100 µM (inactive)
same,GI50,OVCAR-3,> 100 µM (inactive)
same,GI50,OVCAR-4,> 100 µM (inactive)
same,GI50,OVCAR-5,> 100 µM (inactive)
same,GI50,OVCAR-8,> 100 µM (inactive)
same,GI50,RPMI-8226,> 100 µM (inactive)
same,GI50,RXF 631,> 100 µM (inactive)
same,GI50,SF-268,> 100 µM (inactive)
same,GI50,SF-295,> 100 µM (inactive)
same,GI50,SF-539,> 100 µM (inactive)
same,GI50,SK-MEL-28,> 100 µM (inactive)
same,GI50,SK-MEL-2,> 100 µM (inactive)
same,GI50,SK-MEL-5,> 100 µM (inactive)
same,GI50,SK-OV-3,> 100 µM (inactive)
same,GI50,SNB-75,> 100 µM (inactive)
same,GI50,SNB-78,> 100 µM (inactive)
same,GI50,SR,> 100 µM (inactive)
same,GI50,SW-620,> 100 µM (inactive)
same,GI50,TK-10,> 100 µM (inactive)
same,GI50,U-251,> 100 µM (inactive)
same,GI50,UACC-257,> 100 µM (inactive)
same,GI50,UACC-62,> 100 µM (inactive)
same,GI50,UO-31,> 100 µM (inactive)
O=C(O)c1ccccc1C1c2ccc(Cl)cc2Oc2cc(Cl)ccc21,GI50,786-0,> 100 µM (inactive)
same,GI50,A549,> 100 µM (inactive)
same,GI50,ACHN,> 100 µM (inactive)
same,GI50,CAKI-1,> 100 µM (inactive)
same,GI50,CCRF-CEM,> 100 µM (inactive)
same,GI50,COLO 205,> 100 µM (inactive)
same,GI50,DLD-1,> 100 µM (inactive)
same,GI50,DMS-114,> 100 µM (inactive)
same,GI50,DMS-273,> 100 µM (inactive)
same,GI50,EKVX,> 100 µM (inactive)
same,GI50,HCC 2998,> 100 µM (inactive)
same,GI50,HCT-15,> 100 µM
same,GI50,HL-60,> 100 µM (inactive)
same,GI50,HOP-18,> 100 µM (inactive)
same,GI50,HOP-62,> 100 µM (inactive)
same,GI50,HOP-92,> 100 µM (inactive)
same,GI50,HT-29,> 100 µM (inactive)
same,GI50,IGROV-1,> 100 µM (inactive)
same,GI50,K562,> 100 µM (inactive)
same,GI50,KM-20L2,> 100 µM (inactive)
same,GI50,KM12,> 100 µM (inactive)
same,GI50,LOX IMVI,> 100 µM (inactive)
same,GI50,LXFL 529,> 100 µM (inactive)
same,GI50,M14,> 100 µM (inactive)
same,GI50,M19-MEL,> 100 µM (inactive)
same,GI50,MOLT-4,> 100 µM (inactive)
same,GI50,Malme-3M,> 100 µM (inactive)
same,GI50,NCI-H23,> 100 µM (inactive)
same,GI50,NCI-H460,> 100 µM (inactive)
same,GI50,NCI-H522,> 100 µM (inactive)
same,GI50,OVCAR-3,> 100 µM (inactive)
same,GI50,OVCAR-4,> 100 µM (inactive)
same,GI50,OVCAR-5,> 100 µM (inactive)
same,GI50,OVCAR-8,> 100 µM (inactive)
same,GI50,RPMI-8226,> 100 µM (inactive)
same,GI50,RXF 393,> 100 µM (inactive)
same,GI50,RXF 631,> 100 µM (inactive)
same,GI50,SF-268,> 100 µM (inactive)
same,GI50,SF-295,> 100 µM (inactive)
same,GI50,SF-539,> 100 µM (inactive)
same,GI50,SK-MEL-28,> 100 µM (inactive)
same,GI50,SK-MEL-2,> 100 µM (inactive)
same,GI50,SK-MEL-5,> 100 µM (inactive)
same,GI50,SK-OV-3,> 100 µM (inactive)
same,GI50,SN12C,> 100 µM (inactive)
same,GI50,SNB-19,> 100 µM (inactive)
same,GI50,SNB-75,> 100 µM (inactive)
same,GI50,SW-620,> 100 µM (inactive)
same,GI50,TK-10,> 100 µM (inactive)
same,GI50,U-251,> 100 µM (inactive)
same,GI50,UACC-257,> 100 µM (inactive)
same,GI50,UACC-62,> 100 µM (inactive)
same,GI50,UO-31,> 100 µM (inactive)
